The results in this text go back to patent US7998981B2, “Aminoaryl sulphonamide derivatives as functional 5-HT6 ligands” (Suven Life Sciences Limited, priority 2005, dated 2011).

Molecules are shown by their SMILES.

One test concerns the target T1, Human 5-HT6 Receptor (Homo sapiens, UniProt P50406).
T1 construct: host or cells: HEK293
The test can be described thus: Nova Screen binding assay for human 5-HT6 receptor ([3H]LSD radioligand binding). The conditions noted are these: human recombinant receptor expressed in HEK293 cells, [3H]LSD 1.5 nM; for inhibition at 0.1 µM: read-out: % Inhibition at 100 nM, radioligand binding data at 5ht6R (h); for Ki: 60 minutes at 37° C., read-out: Ki, radioligand binding data at 5ht6R (h). Here is the method:
Nova Screen Binding Assay for Human 5-HT6 Receptor
Pharmacological data Compounds can be tested according to the following the procedures.
Receptor source: Human recombinant expressed in HEK293 cells
Radioligand: [^3H]LSD (60-80 Ci/mmol)
Final ligand concentration—[1.5 nM]
Non-specific determinant: Methiothepin mesylate—[0.1 μM]
Reference compound: Methiothepin mesylate
Positive control: Methiothepin mesylate
Incubation conditions: Reactions were carried out in 50 mM TRIS-HCl (pH 7.4) containing 10 mM MgCl2, 0.5 mM EDTA for 60 minutes at 37° C. The reaction was terminated by rapid vacuum filtration onto glass fiber filters. Radioactivity trapped onto the filters was determined and compared to control values in order to ascertain any interactions of test compound(s) with the cloned serotonin -5HT6 binding site.
Literature Reference: Monsma F. J. Jr., et al., Molecular Cloning and Expression of Novel Serotonin Receptor with High Affinity for Tricyclic Psychotropic Drugs. Mol. Pharmacol. (43): 320-327 (1993).

The test system of the next test is Male Wistar rats. The test can be described thus: Object recognition task model. The class given is in vivo, rat. The conditions noted are these: orally or i.p. one hour before T1 and T2; T2 24 hour after T1; example 6 at 10 mg/Kg orally (FIG. 1). As for the experimental part: Object Recognition Task Model
The cognition-enhancing properties of compounds of this invention were estimated using a model of animal cognition: the object recognition task model.
Male wistar rats (230-280 g) obtained from N I.N. (National Institute of Nutrition, Hyderabad, India) were used as an experimental animal. Four animals were housed in each cage. Animals were kept on 20% food deprivation before one day and given water ad libitum throughout the experiment, and maintained on a 12 h light/dark cycle. Also the rats were habituated to individual arenas for 1 hour in absence of any objects.
One group of 12 rats received vehicle (1 mL/Kg) orally and another set of animals received compound of the formula (I) either orally or i.p., before one hour of the familiar (T1) and choice trial (T2). The experiment was carried out in a 50×50×50 Cm open field made up of acrylic. In the familiarization phase, (T1), the rats were placed individually in the open field for 3 min., in which two identical objects (plastic bottles, 12.5 Cm height×5.5 Cm diameter) covered in yellow masking tape alone (a1 and a2) were positioned in two adjacent corners, 10 Cm. from the walls. After 24 hour of the (T1) trial for long-term memory test, the same rats were placed in the same arena as they were placed in T1 trial. […]

A further test relates to Adult male Wistar rats. The test can be described thus: Passive avoidance (single-trial, step through, light-dark paradigm). The class given is in vivo, rat. The conditions noted are these: 10 mg/Kg oral dose; recall 24 h, 72 h and 7 day post-training (FIG. 2). From the text: Passive Avoidance Apparatus Animals were trained in a single-trial, step through, light-dark passive avoidance paradigm. The training apparatus consisted of a chamber 300 mm in length, 260 mm wide, and 270 mm in height, constructed to established designs. The front and top were transparent, allowing the experimenter to observe the behavior of the animal inside the apparatus. The chamber was divided into two compartments, separated by a central shutter that contained a small opening 50 mm wide and 75 mm high set close to the front of the chamber. The smaller of the compartments measured […] in width and contained a low-power (6V) illumination source. The larger compartment measured 210 mm in width and was not illuminated. […] A resistance range of […] was calculated for a control group of rats and the apparatus was calibrated accordingly. […] Latency to enter the dark chamber was recorded (usually <20 s), and having completely entered the dark compartment an inescapable foot shock of 0.75 mA for 3 s was administered to the animal. […] Recall of this inhibitory stimulus was evaluated 24 h, 72 h and on 7 day post-training by returning the animal into the light chamber and recording their latency to enter the dark chamber, a criterion time of 300 s was employed.

T1 sequence (P50406 whole entry): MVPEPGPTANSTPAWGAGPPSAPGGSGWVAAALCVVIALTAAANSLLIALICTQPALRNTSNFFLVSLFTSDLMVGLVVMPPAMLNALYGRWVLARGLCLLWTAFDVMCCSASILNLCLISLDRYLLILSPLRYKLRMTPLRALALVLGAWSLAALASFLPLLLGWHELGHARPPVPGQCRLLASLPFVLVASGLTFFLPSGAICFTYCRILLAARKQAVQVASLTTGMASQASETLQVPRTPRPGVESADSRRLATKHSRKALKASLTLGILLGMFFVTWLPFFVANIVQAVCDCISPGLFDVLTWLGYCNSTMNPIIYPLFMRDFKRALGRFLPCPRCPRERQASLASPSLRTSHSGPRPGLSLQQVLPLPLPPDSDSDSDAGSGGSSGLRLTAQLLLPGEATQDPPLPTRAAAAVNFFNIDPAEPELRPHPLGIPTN

The inhibition is the change of the read-out against control, counted positive when it falls. For orientation: Ki means a dissociation constant, usually derived from enzyme kinetics or from competition with a known ligand. With `CN1CCC(Nc2cccc(S(=O)(=O)n3ccc4ccccc43)c2)CC1` [Example 1, 1-[3-(1-Methylpiperidin-4-yl)amino]benzenesulfonyl-1H-indole], the inhibition at 0.1 µM on Human 5-HT6 Receptor (100 nM) amounted to 96.8%. In addition, on Human 5-HT6 Receptor, the Ki turned out to be 3.19 nM.

As to `COc1ccc2c(ccn2S(=O)(=O)c2cccc(NC3CCN(C)CC3)c2)c1` [Example 2, 1-[3-(1-Methylpiperidin-4-yl)amino]benzenesulfonyl-5-methoxyindole], the inhibition at 0.1 µM at Human 5-HT6 Receptor (100 nM) was 82.2%. The inhibition constant Ki on Human 5-HT6 Receptor stood at 12.5 nM.

On to `CN1CCC(Nc2cccc(S(=O)(=O)n3ccc4cc(Br)ccc43)c2)CC1` [Example 4, 1-[3-(1-Methylpiperidin-4-yl)amino]benzenesulfonyl-5-bromoindole], for which the inhibition at 0.1 µM on Human 5-HT6 Receptor (100 nM) is 92.2%. Further, the Ki at Human 5-HT6 Receptor is 10.3 nM.

Turning to `CN1CCC(Nc2cccc(S(=O)(=O)n3ccc4cc(F)ccc43)c2)CC1` [Example 6, 1-[3-(1-Methylpiperidin-4-yl)amino]benzenesulfonyl-5-fluoroindole], on Human 5-HT6 Receptor (100 nM), the inhibition at 0.1 µM turned out to be 93.2%. For the same molecule, at Human 5-HT6 Receptor, the inhibition constant Ki came to 7 nM. Further, the “novel object recognition (exploration time with novel object, discrimination index)” value with Male Wistar rats is listed as “positive effects”. The “latency to reach the dark zone” value with Adult male Wistar rats is “significant increase in latency”.

For the molecule `COc1ccc2c(ccn2S(=O)(=O)c2ccc(C)c(NC3CCN(C)CC3)c2)c1` [Example 10, 1-[3-(1-Methylpiperidin-4-yl)amino-4-methyl]benzenesulfonyl-5-methoxyindole], the inhibition at 0.1 µM at Human 5-HT6 Receptor (100 nM) was found to be 85.3%. In addition, the Ki on Human 5-HT6 Receptor turned out to be 20.9 nM.

In the case of `COc1ccc(S(=O)(=O)n2ccc3ccccc32)cc1NC1CCN(C)CC1` [Example 17, 1-[3-(1-Methylpiperidin-4-yl)amino-4-methoxy]benzenesulfonyl-1H-indole], the inhibition at 0.1 µM on Human 5-HT6 Receptor (100 nM) amounted to 101%. Further, the Ki on Human 5-HT6 Receptor was 1.29 nM.

Broadly, the % Inhibition is the percentage by which the read-out fell short of the control. Regarding `CN1CCC(Nc2cc(S(=O)(=O)n3ccc4ccccc43)ccc2F)CC1` [Example 25, 1-[3-(1-Methylpiperidin-4-yl)amino-4-Fluoro]benzenesulfonylindole], the “% Inhibition at 100 nM, radioligand binding data at 5ht6R (h)” value at Human 5-HT6 Receptor (100 nM) came out at 99.33%.
